Experimental data published in patent US8178506B2, “Oligomeric compounds and compositions for use in modulation of small non-coding RNAs” (Regulus Therapeutics Inc., priority 2003, dated 2012).
“And” between values parts separate entries of the source, which are not always exact repeats. Identical values can stand only once. In the oligonucleotide strings, read from the 5' end, every base follows the letter of its sugar. An asterisk marks phosphorothioate; unmarked linkages are phosphodiester. Other units and linkages are bracketed, terminal groups are in braces. A string of capitals states the bases alone. e = 2'-O-(2-methoxyethyl) (MOE); [5mC] = 5-methylcytosine; d = 2'-deoxy (DNA)

Tested on: HeLa cells
Assay: Cell cycle assay in HeLa cells
Assay type: cell-based, human
Details: for % cells aneuploid / % cells in cell cycle phase G1 / % cells in cell cycle phase G2/M / % cells in cell cycle phase S / % cells in cell cycle phase subG1 / % cells in cell cycle phase: G1 / % cells in cell cycle phase: G2/M / % cells in cell cycle phase: S / % cells in cell cycle phase: aneuploid / % cells in cell cycle phase: subG1 / % cells in cell cycle phase aneuploid: HeLa cells
[1] = 150 nM oligomeric compound, 24 hours, relative to untreated control (UTC = 100)
[2] = 150 nM oligomeric compound, 48 hours after treatment, relative to untreated control (UTC=100)
[3] = 150 nM, 48 hours, relative to untreated control
[4] = 25 nM, 48 hours, percentage of cells in phase, average of replicates
[5] = 50 nM, 48 hours, percentage of cells in phase, average of replicates
[6] = 100 nM, 48 hours, percentage of cells in phase, average of replicates
[7] = 150 nM, 48 hours, percentage of cells in phase, average of replicates

327910 (antisense eT*eG*eA*eT*eA*eG*e[5mC]*e[5mC]*e[5mC]*eT*eG*eT*eA*e[5mC]*eA*eA*eT*eG*e[5mC]*eT*eG*e[5mC]*eT) [compound 327910]
% cells aneuploid [1]: 73%
% cells in cell cycle phase G1 [1]: 154%
% cells in cell cycle phase G2/M [1]: 118%
% cells in cell cycle phase S [1]: 42%
% cells in cell cycle phase subG1 [1]: 174%
% cells in cell cycle phase: G1 [2]: 99%
% cells in cell cycle phase: G2/M [2]: 111%
% cells in cell cycle phase: S [2]: 91%
% cells in cell cycle phase: aneuploid [2]: 92%
% cells in cell cycle phase: subG1 [2]: 53%

328111 (antisense eT*e[5mC]*e[5mC]*eG*eA*eG*eT*e[5mC]*eG*eG*eA*eG*eG*eA*eG*eG*eA*eG*eG*eA*eA) [compound 328111]
% cells aneuploid [1]: 50%
% cells in cell cycle phase G1 [1]: 127%
% cells in cell cycle phase G2/M [1]: 99%
% cells in cell cycle phase S [1]: 75%
% cells in cell cycle phase subG1 [1]: 62%
% cells in cell cycle phase: G1 [2]: 84%
% cells in cell cycle phase: G2/M [2]: 119%
% cells in cell cycle phase: S [2]: 126%
% cells in cell cycle phase: aneuploid [2]: 90%
% cells in cell cycle phase: subG1 [2]: 371%

ACTTTCGGTTATCTAGCTTTA [ISIS 327892] (chemistry not given here) [uniform 2′-MOE PS; targets mir-131-2/mir-9]
phase of the cell cycle in which cells arrest or delay (HeLa, 150 nM, 48 hours): G2/M- and S-phases

327877 (antisense e[5mC]*eG*e[5mC]*e[5mC]*eA*eA*eT*eA*eT*eT*eT*eA*e[5mC]*eG*eT*eG*e[5mC]*eT*eG*e[5mC]*eT*eA) [compound 327877]
% cells aneuploid [1]: 62%
% cells in cell cycle phase G1 [1]: 107%
% cells in cell cycle phase G2/M [1]: 159%
% cells in cell cycle phase S [1]: 66%
% cells in cell cycle phase subG1 [1]: 154%
% cells in cell cycle phase: G1 [2]: 59%
% cells in cell cycle phase: G2/M [2]: 168%
% cells in cell cycle phase: S [2]: 152%
% cells in cell cycle phase: aneuploid [2]: 80%
% cells in cell cycle phase: subG1 [2]: 755%

327896 (antisense eA*e[5mC]*eA*eG*eT*eT*e[5mC]*eT*eT*e[5mC]*eA*eA*e[5mC]*eT*eG*eG*e[5mC]*eA*eG*e[5mC]*eT*eT) [compound 327896]
% cells aneuploid [1]: 65%
% cells in cell cycle phase G1 [1]: 83%
% cells in cell cycle phase G2/M [1]: 128%
% cells in cell cycle phase S [1]: 103%
% cells in cell cycle phase subG1 [1]: 121%
% cells in cell cycle phase: G1 [2]: 55%
% cells in cell cycle phase: G2/M [2]: 194%
% cells in cell cycle phase: S [2]: 140%
% cells in cell cycle phase: aneuploid [2]: 66%
% cells in cell cycle phase: subG1 [2]: 886%
% cells in cell cycle phase G1 [3]: 103%
% cells in cell cycle phase G2/M [3]: 106%
% cells in cell cycle phase S [3]: 94%
% cells in cell cycle phase aneuploid [3]: 144%
% cells in cell cycle phase subG1 [3]: 95%

327906 (antisense eT*e[5mC]*eA*eT*eA*eG*e[5mC]*e[5mC]*e[5mC]*eT*eG*eT*eA*e[5mC]*eA*eA*eT*eG*e[5mC]*eT*eG*e[5mC]*eT) [compound 327906]
% cells aneuploid [1]: 65%
% cells in cell cycle phase G1 [1]: 153%
% cells in cell cycle phase G2/M [1]: 107%
% cells in cell cycle phase S [1]: 47%
% cells in cell cycle phase subG1 [1]: 228%
% cells in cell cycle phase: G1 [2]: 100%
% cells in cell cycle phase: G2/M [2]: 103%
% cells in cell cycle phase: S [2]: 98%
% cells in cell cycle phase: aneuploid [2]: 83%
% cells in cell cycle phase: subG1 [2]: 57%

327956 (antisense e[5mC]*eA*e[5mC]*eA*eG*eT*eT*eG*e[5mC]*e[5mC]*eA*eG*e[5mC]*eT*eG*eA*eG*eA*eT*eT*eA) [compound 327956]
% cells aneuploid [1]: 61%
% cells in cell cycle phase G1 [1]: 124%
% cells in cell cycle phase G2/M [1]: 120%
% cells in cell cycle phase S [1]: 68%
% cells in cell cycle phase subG1 [1]: 120%
% cells in cell cycle phase: G1 [2]: 91%
% cells in cell cycle phase: G2/M [2]: 121%
% cells in cell cycle phase: S [2]: 106%
% cells in cell cycle phase: aneuploid [2]: 110%
% cells in cell cycle phase: subG1 [2]: 184%

328136 (eA*eA*e[5mC]*eT*eA*e[5mC]*eT*eT*e[5mC]*e[5mC]*eA*eG*eA*eG*e[5mC]*eA*eG*eG*eT*eG*eA; anti-miR) [compound 328136]
% cells aneuploid [1]: 51%
% cells in cell cycle phase G1 [1]: 125%
% cells in cell cycle phase G2/M [1]: 88%
% cells in cell cycle phase S [1]: 81%
% cells in cell cycle phase subG1 [1]: 330%
% cells in cell cycle phase: G1 [2]: 83%
% cells in cell cycle phase: G2/M [2]: 113%
% cells in cell cycle phase: S [2]: 133%
% cells in cell cycle phase: aneuploid [2]: 85%
% cells in cell cycle phase: subG1 [2]: 140%

328119 (antisense eA*eA*eT*eA*eA*e[5mC]*eA*e[5mC]*eA*e[5mC]*eA*eT*e[5mC]*e[5mC]*eA*e[5mC]*eT*eT*eT*eA*eA) [compound 328119]
% cells aneuploid [1]: 83%
% cells in cell cycle phase G1 [1]: 100%
% cells in cell cycle phase G2/M [1]: 112%
% cells in cell cycle phase S [1]: 94%
% cells in cell cycle phase subG1 [1]: 75%
% cells in cell cycle phase: G1 [2]: 75%
% cells in cell cycle phase: G2/M [2]: 124%
% cells in cell cycle phase: S [2]: 145%
% cells in cell cycle phase: aneuploid [2]: 81%
% cells in cell cycle phase: subG1 [2]: 767%

328382 (e[5mC]*eA*eG*eA*e[5mC]*dT*d[5mC]*d[5mC]*d[5mC]*dA*dA*d[5mC]*dT*dG*dA*e[5mC]*e[5mC]*eA*eG*eA) [compound 328382]
% cells in cell cycle phase G1 [1]: 118% and 102%
% cells in cell cycle phase G2/M [1]: 116% and 144%
% cells in cell cycle phase S [1]: 76% and 80%
% cells in cell cycle phase: G1 [2]: 102% and 83%
% cells in cell cycle phase: G2/M [2]: 103% and 120%
% cells in cell cycle phase: S [2]: 92% and 122%
% cells in cell cycle phase: aneuploid [2]: 109% and 133%

327902 (antisense eG*eG*e[5mC]*eT*eG*eT*e[5mC]*eA*eA*eT*eT*e[5mC]*eA*eT*eA*eG*eG*eT*e[5mC]*eA*eG) [compound 327902]
% cells in cell cycle phase: G2/M (25 nM, 48 hours): 19%
% cells in cell cycle phase: G1 [4]: 57%
% cells in cell cycle phase: S [4]: 23%
% cells in cell cycle phase: aneuploid [4]: 13%
% cells in cell cycle phase: subG1 [4]: 1.6%
% cells in cell cycle phase: G2/M (50 nM, 48 hours): 20%
% cells in cell cycle phase: G1 [5]: 51%
% cells in cell cycle phase: S [5]: 30%
% cells in cell cycle phase: aneuploid [5]: 14%
% cells in cell cycle phase: subG1 [5]: 2.4%
% cells in cell cycle phase: G2/M (100 nM, 48 hours): 27%
% cells in cell cycle phase: G1 [6]: 43%
% cells in cell cycle phase: S [6]: 30%
% cells in cell cycle phase: aneuploid [6]: 11%
% cells in cell cycle phase: subG1 [6]: 3.1%
% cells aneuploid [1]: 66% and 98%
% cells in cell cycle phase G1 [1]: 57% and 44%
% cells in cell cycle phase G2/M [1]: 176% and 163%
% cells in cell cycle phase S [1]: 106% and 121%
% cells in cell cycle phase subG1 [1]: 178% and 175%
% cells in cell cycle phase: G1 [2]: 39% and 44%
% cells in cell cycle phase: G2/M [2]: 208% and 205%
% cells in cell cycle phase: S [2]: 171% and 166%
% cells in cell cycle phase: aneuploid [2]: 81% and 87%
% cells in cell cycle phase: G2/M (150 nM, 48 hours): 28%
% cells in cell cycle phase G1 [3]: 108%
% cells in cell cycle phase G2/M [3]: 93%
% cells in cell cycle phase S [3]: 96%
% cells in cell cycle phase aneuploid [3]: 162%
% cells in cell cycle phase subG1 [3]: 94%
% cells in cell cycle phase: G1 [7]: 36%
% cells in cell cycle phase: S [7]: 36%
% cells in cell cycle phase: aneuploid [7]: 12%
% cells in cell cycle phase: subG1 [7]: 6.3%

328362 (eT*eG*eT*eG*eT*dT*dT*dT*d[5mC]*dT*dG*dA*d[5mC]*dT*d[5mC]*eA*eG*eT*e[5mC]*eA) [compound 328362]
% cells aneuploid [1]: 66%
% cells in cell cycle phase G1 [1]: 101%
% cells in cell cycle phase G2/M [1]: 126%
% cells in cell cycle phase S [1]: 87%
% cells in cell cycle phase subG1 [1]: 114%
% cells in cell cycle phase: G1 [2]: 96%
% cells in cell cycle phase: G2/M [2]: 108%
% cells in cell cycle phase: S [2]: 104%
% cells in cell cycle phase: aneuploid [2]: 97%
% cells in cell cycle phase: subG1 [2]: 87%

327907 (antisense eA*eG*e[5mC]*e[5mC]*eT*eA*eT*e[5mC]*e[5mC]*eT*eG*eG*eA*eT*eT*eA*e[5mC]*eT*eT*eG*eA*eA) [compound 327907]
% cells aneuploid [1]: 75%
% cells in cell cycle phase G1 [1]: 119%
% cells in cell cycle phase G2/M [1]: 111%
% cells in cell cycle phase S [1]: 77%
% cells in cell cycle phase subG1 [1]: 224%
% cells in cell cycle phase: G1 [2]: 92%
% cells in cell cycle phase: G2/M [2]: 115%
% cells in cell cycle phase: S [2]: 111%
% cells in cell cycle phase: aneuploid [2]: 94%
% cells in cell cycle phase: subG1 [2]: 116%

327904 (antisense eA*e[5mC]*eT*e[5mC]*eA*e[5mC]*e[5mC]*eG*eA*e[5mC]*eA*eG*e[5mC]*eG*eT*eT*eG*eA*eA*eT*eG*eT*eT) [compound 327904]
% cells aneuploid [1]: 89%
% cells in cell cycle phase G1 [1]: 99%
% cells in cell cycle phase G2/M [1]: 99%
% cells in cell cycle phase S [1]: 102%
% cells in cell cycle phase subG1 [1]: 114%
% cells in cell cycle phase: G1 [2]: 87%
% cells in cell cycle phase: G2/M [2]: 114%
% cells in cell cycle phase: S [2]: 126%
% cells in cell cycle phase: aneuploid [2]: 80%
% cells in cell cycle phase: subG1 [2]: 116%

340350 (antisense TGCTCAATAAATACCCGTTGAA; all 2'-MOE, all phosphorothioate, methylation of C not given here) [compound 340350]
% cells aneuploid [1]: 94%
% cells in cell cycle phase G1 [1]: 183%
% cells in cell cycle phase G2/M [1]: 104%
% cells in cell cycle phase S [1]: 54%
% cells in cell cycle phase subG1 [1]: 218%
% cells in cell cycle phase: G1 [2]: 76%
% cells in cell cycle phase: G2/M [2]: 134%
% cells in cell cycle phase: S [2]: 126%
% cells in cell cycle phase: aneuploid [2]: 125%
% cells in cell cycle phase: subG1 [2]: 1144%
% cells in cell cycle phase G1 [3]: 101%
% cells in cell cycle phase G2/M [3]: 112%
% cells in cell cycle phase S [3]: 94%
% cells in cell cycle phase aneuploid [3]: 177%
% cells in cell cycle phase subG1 [3]: 132%
